Measurements from patent US9440943B2, “Tricyclic sulfone compounds and methods of making and using same” (Zafgen, Inc., priority 2012, dated 2016).

Biological target: T1, Human recombinant MetAP2 (Homo sapiens, UniProt P50579)
T1 construct: made in house; host or cells: Sf9 insect cells
Experiment: recombinant human MetAP2 inhibition assay (MAS substrate, amino acid oxidase/Amplex red fluorescence)
Format: biochemical
Details: manganese enzyme, 30 minutes at 25° C., pH 7.5, 0.75 mM MAS substrate, 1% DMSO
Procedure: Compounds are tested for their capacity to inhibit recombinant human MetAP2 activity using the following assay.
Human recombinant MetAP2 expressed in Sf9 cells followed by affinity purification and EDTA treatment to remove endogenous active site cation was dialysed against MnCl2 to produce the manganese enzyme used in the assay. The assay was carried out for 30 minutes at 25° C. in 50 mM HEPES buffer containing 100 mM NaCl, at pH 7.5. The presence of 0.75 mM Methionine-Alanine-Serine (MAS) substrate and 50 μg/mL amino acid oxidase using a dilution of purified MetAP2 gives >3-fold signal:noise. Cleavage of the substrate by MetAP2 and oxidation of free methionine by amino acid oxidase was detected and quantified using fluorescence generated by Amplex red (10-acetyl-3,7-dihydroxyphenoxazine) in combination with horseradish peroxidase which detects H2O2 released during the oxidation step. The fluorescent signal was detected using a multiwell fluorimeter. Compounds were diluted in DMSO prior to addition to assay buffer, the final DMSO concentration in the assay being 1%.
The IC50 is defined as the concentration at which a given compound achieves 50% inhibition of control. IC50 values are calculated using the XLfit software package (version 2.0.5).

T1 sequence (P50579 whole entry): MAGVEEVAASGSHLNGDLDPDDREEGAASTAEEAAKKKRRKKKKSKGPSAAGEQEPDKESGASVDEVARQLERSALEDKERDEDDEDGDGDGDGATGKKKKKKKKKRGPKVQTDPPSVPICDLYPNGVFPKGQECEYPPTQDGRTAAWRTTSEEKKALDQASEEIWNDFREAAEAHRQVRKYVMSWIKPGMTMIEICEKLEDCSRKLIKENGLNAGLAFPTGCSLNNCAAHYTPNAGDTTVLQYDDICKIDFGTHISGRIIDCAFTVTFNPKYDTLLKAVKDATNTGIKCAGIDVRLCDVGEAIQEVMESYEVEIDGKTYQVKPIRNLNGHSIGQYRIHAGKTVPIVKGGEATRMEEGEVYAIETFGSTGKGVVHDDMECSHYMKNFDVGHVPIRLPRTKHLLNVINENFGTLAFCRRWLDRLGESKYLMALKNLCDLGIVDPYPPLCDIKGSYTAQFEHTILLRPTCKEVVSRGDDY

| IC50 [nM] | Compound |
| --- | --- |
| > 100 | CCN(CC)C/C=C\c1cc(F)ccc1S(=O)(=O)Cc1ccc2c(c1C(=O)O)OC[C@H]1C[C@@H]21 (racemic) [Example 1, Cis-(1aRS,7bSR)-5-[2-((Z)-3-diethylaminoprop-1-enyl)-4-fluoro-benzenesulfonylmethyl]-1,1a,2,7b-tetrahydrocyclopropa[c]chromene-4-carboxylic acid] |
| > 100 | CCN(CC)C/C=C\c1cc(F)ccc1S(=O)(=O)Cc1ccc2c(c1C(=O)O)OC[C@@H]1C[C@H]21 [Example 2] |
